Data as given in paper PMC5823406, “Vehicle development, pharmacokinetics and toxicity of the anti-invasive agent 4-fluoro-3’,4’,5’-trimethoxychalcone in rodents” (PLoS ONE, 2018).
Where “and” joins values, the source holds several entries; their conditions need not be identical. Identical values can stand only once. Like-named read-outs stand apart in the source and are kept apart here. Marks after values point to notes of the source that are not given here.

Assays:
[1] = Plasma PK study (IV and PO) in male Sprague-Dawley rats; assay type: in vivo, rat
Excerpt: Six male Sprague-Dawley rats (200–350 g) were obtained from Hilltop Labs. Animals were assigned randomly to two groups (IV or PO) of 3 upon arrival. Duration of acclimation was approximately two days. Animals were healthy at the start of the trial.
Animals subjected to IV dosing were fitted with a jugular vein cannula (JVC) under isoflurane anesthesia (induction 4%, maintenance 2.0%, oxygen 1 L/min) and under an external heating source. Post-operative analgesia was provided in the form of 2.5–5 mg/kg of ketoprofen subcutaneously. Benzylpenicillin (60 mg) was given intramuscularly to prevent infection. Sterile 0.9% NaCl was injected subcutaneously under the back skin using a 21G needle during recovery to replace fluid loss. Animals were placed under a heat lamp and monitored until they regained full consciousness. […] Surgically modified animals were housed individually, monitored hourly for the first 4 h and then daily over a 2-day recovery period.
Animals were maintained in a well-controlled temperature (20–24°C) and humidity (30%-70%) environment with 12 h light/dark cycles. Conventional cages with wood chip bedding were used. Animals were identified by a cage label. The study was not blinded. Food was withheld from all animals for a minimum of twelve hours prior to test article administration and returned at approximately 4 h post-dose. Water was supplied ad libitum.
C16 was dosed in cassette with two undisclosed compounds of similar chemical structure. Dosing solutions were prepared in 100% DMSO on the day of dosing. The concentration of C16 was 1 and 5 mg/mL for IV and PO dosing, respectively. C16 was administered at 1 mg/kg IV via JVC or at 10 mg/kg PO.
Sampling took place pre-dose, 5, 15, 30 min, 1, 2, 4, and 8 h post-dose. Blood samples (0.3 mL) were collected via the JVC, placed into chilled tubes containing sodium heparin and kept on ice until centrifugation. Plasma preparation involved centrifugation at a temperature of 2 to 8°C at 3,000 g for 5 min. Plasma samples were stored frozen at -70°C until analysis. No necropsy was performed.
Pharmacokinetic parameters were estimated by a non-compartmental model using WinNonlin (v5.2.1 or higher) software. The maximum plasma/blood concentrations (c0) after IV dosing were estimated by extrapolation of the first two time points back to t = 0. The maximum blood concentration (cmax) and the time to reach maximum blood drug concentration (tmax) after PO dosing were derived from the data. The area under the time-concentration curve (AUC) was calculated using the linear trapezoidal rule with calculation to the last quantifiable data point, and with extrapolation to infinity if applicable. Plasma/blood half-life (t1/2) was calculated from 0.693/slope of the terminal elimination phase. Mean residence time (MRT) was calculated by dividing the area under the moment curve (AUMC) by the AUC. Clearance (CL) was calculated from dose/AUC. Steady-state volume of distribution (Vss) was calculated from CL*MRT. Bioavailability was determined by dividing the individual dose-normalized PO AUC values by the respective average dose-normalized intravenous (IV) AUC value. Samples that were below the limit of quantification were not used in the calculation of averages, and were treated as zero for pharmacokinetic data analysis. […]
(mAU.s) (mAU.s) peak area) (mAU.s) (mAU.s) peak area) (mAU.s) (mAU.s) peak area) […]
a. Dosing solution preparation
The dosing solution was prepared as a cassette to contain all three test articles in the same solution. IV dosing was fixed at 2 mg/mL of C16 and the two other test articles in neat DMSO as the vehicle, with a dosing volume 0.5 mL/kg (slow injection). PO dosing was set at 10 mg/mL of C16 and the two other test articles in neat DMSO as the vehicle, with a dosing volume of 1 mL/kg.
Individual plasma concentrations for C16 are shown in Table F and Table G. All data are expressed as ng/mL of the […]
free drug. […]

[2] = Protein binding and recovery; assay type: in vitro ADME; conditions: Human plasma
[3] = Plasma stability; assay type: in vitro ADME; conditions: plasma (rat, Sprague-Dawley)
Excerpt: Table 3 In vitro physicochemical, stability and metabolism data. | column: Value

[4] = system: SK-OV-3; design: method as in PMID 26204510; conditions: read-out: IC50 in Matrigel invasion assay (SK-OV-3); cited from earlier work
[5] = male, Sprague-Dawley, rat, plasma, iv, 1 mg/kg, male Sprague-Dawley rat, IV 1 mg/kg, vehicle DMSO, average
[6] = male, Sprague-Dawley, rat, plasma, iv, 1 mg/kg, rat plasma, IV 1 mg/kg, individual animals 1-3
[7] = male, Sprague-Dawley, rat, plasma, po, 10 mg/kg, male Sprague-Dawley rat, PO 10 mg/kg, vehicle DMSO, average
[8] = male, Sprague-Dawley, rat, plasma, po, 10 mg/kg, male Sprague-Dawley rat, PO 10 mg/kg, vehicle DMSO, calculated for two out of three animals
[9] = plasma, male Sprague-Dawley rat, IV 1 mg/kg, vehicle DMSO, average
[10] = rat plasma, IV 1 mg/kg, individual animals 1-3, 1 mg/kg
[11] = rat plasma, PO 10 mg/kg, individual animals 4-6, 10 mg/kg
[12] = rat plasma, PO 10 mg/kg, individual animals 5-6, 10 mg/kg

COc1cc(C(=O)/C=C/c2ccc(F)cc2)cc(OC)c1OC [C16, 4-fluoro-3’,4’,5’-trimethoxychalcone]
AUC(0-inf) [1, 5]: 215 ng·h/mL
AUC(0-t) [1, 5]: 211 ng·h/mL
MRT last [1, 5]: 0.76 h
clearance [1, 5]: 82.5 mL/min/kg
half-life [1, 5]: 1.93 h
C0 ([1]; male, Sprague-Dawley, rat, plasma, iv, 1 mg/kg, male Sprague-Dawley rat, IV 1 mg/kg, vehicle DMSO, average, extrapolated to t = 0): 1260 ng/mL
Vd ([1]; male, Sprague-Dawley, rat, plasma, iv, 1 mg/kg, plasma, male Sprague-Dawley rat, IV 1 mg/kg, vehicle DMSO, average, read-out: Vss): 4.77 L/kg
Tmax ([1]; male, Sprague-Dawley, rat, plasma, iv, 1 mg/kg, plasma, male Sprague-Dawley rat, IV 1 mg/kg, vehicle DMSO, average, read-out: tmax): 0 h
AUC(0-inf) [1, 6]: 227 ng·h/mL
AUC(0-t) [1, 6]: 224 ng·h/mL
MRT last [1, 6]: 0.7 h
clearance [1, 6]: 73.3 mL/min/kg
half-life [1, 6]: 1.8 h
Tmax ([1]; male, Sprague-Dawley, rat, plasma, iv, 1 mg/kg, rat plasma, IV 1 mg/kg, individual animals 1-3, read-out: tmax): 0 h
concentration at 0.5 h ([1]; male, Sprague-Dawley, rat, plasma, iv, 1 mg/kg, rat, IV 1 mg/kg, 0.50 h, animals 1-3, read-out: Individual plasma concentration): 32.4 ng/mL
concentration at 1 h ([1]; male, Sprague-Dawley, rat, plasma, iv, 1 mg/kg, rat, IV 1 mg/kg, 1.0 h, animals 1-3, read-out: Individual plasma concentration): 23.1 ng/mL
concentration at 2 h ([1]; male, Sprague-Dawley, rat, plasma, iv, 1 mg/kg, rat, IV 1 mg/kg, 2.0 h, animals 1-3, read-out: Individual plasma concentration): 14.3 ng/mL
concentration at 4 h ([1]; male, Sprague-Dawley, rat, plasma, iv, 1 mg/kg, rat, IV 1 mg/kg, 4.0 h, animals 1-3, read-out: Individual plasma concentration): 4.94 ng/mL
concentration at 8 h ([1]; male, Sprague-Dawley, rat, plasma, iv, 1 mg/kg, rat, IV 1 mg/kg, 8.0 h, animals 1-3, read-out: Individual plasma concentration): 1.34 ng/mL
AUC(0-t) [1, 7]: 146 ng·h/mL
MRT last [1, 7]: 3.67 h
AUC(0-inf) [1, 8]: 161 ng·h/mL
half-life [1, 8]: 3.67 h
Bioavailability ([1]; male, Sprague-Dawley, rat, plasma, po, 10 mg/kg, plasma, male Sprague-Dawley rat, PO 10 mg/kg, vehicle DMSO, average, read-out: Bioavailability): 6.91%
cmax ([1]; male, Sprague-Dawley, rat, plasma, po, 10 mg/kg, plasma, male Sprague-Dawley rat, PO 10 mg/kg, vehicle DMSO, average, read-out: cmax): 32.2 ng/mL
Tmax ([1]; male, Sprague-Dawley, rat, plasma, po, 10 mg/kg, plasma, male Sprague-Dawley rat, PO 10 mg/kg, vehicle DMSO, average, read-out: tmax): 2.83 h
MRT last ([1]; male, Sprague-Dawley, rat, plasma, po, 10 mg/kg, rat plasma, PO 10 mg/kg, individual animals 4-6): 4.92 h
concentration at 0.5 h ([1]; male, Sprague-Dawley, rat, plasma, po, 10 mg/kg, rat, PO 10 mg/kg, 0.50 h, animals 4-6, read-out: Individual plasma concentration): 22.5 ng/mL
concentration at 2 h ([1]; male, Sprague-Dawley, rat, plasma, po, 10 mg/kg, rat, PO 10 mg/kg, 2.0 h, animals 4-6, read-out: Individual plasma concentration): 15.1 ng/mL
Dose-normalized AUClast [1, 9]: 211 kg·ng·h/mL/mg
Dose-normalized AUC∞ [1, 9]: 215 kg·ng·h/mL/mg
Dose-normalized AUClast ([1]; plasma, male Sprague-Dawley rat, PO 10 mg/kg, vehicle DMSO, average): 14.6 kg·ng·h/mL/mg
Dose-normalized AUC∞ ([1]; plasma, male Sprague-Dawley rat, PO 10 mg/kg, vehicle DMSO, calculated for two out of three animals): 16.1 ^f h∙kg ng/mL/mg
AUClast [1, 10]: 145 ng·h/mL and 264 ng·h/mL
AUC∞ [1, 10]: 149 ng·h/mL and 269 ng·h/mL
CL [1, 10]: 112 mL/min/kg and 62 mL/min/kg
MRTlast [1, 10]: 0.87 h and 0.71 h
Vss [1, 10]: 3.73 L/kg and 7.30 L/kg and 3.27 L/kg
c0 [1, 10]: 1718 ng/mL and 659 ng/mL and 1395 ng/mL
t1/2 [1, 10]: 2.00 h
AUClast [1, 11]: 236 ng·h/mL and 88.0 ng·h/mL and 114 ng·h/mL
Bioavailability [1, 11]: 11.2% and 4.17% and 5.39%
Dose Normalized AUClast [1, 11]: 23.6 kg·ng·h/mL/mg and 8.80 kg·ng·h/mL/mg and 11.4 kg·ng·h/mL/mg
MRTlast [1, 11]: 3.60 h and 2.48 h
Tmax [1, 11]: 8.00 h
cmax [1, 11]: 47.1 ng/mL and 15.9 ng/mL and 33.5 ng/mL
AUC∞ [1, 12]: 219 ng·h/mL
Dose Normalized AUC∞ [1, 12]: 10.2 kg·ng·h/mL/mg and 21.9 kg·ng·h/mL/mg
t1/2 [1, 12]: 11.0 h
Adverse effects after intravenous and oral administration ([1]; rat, 1 mg/kg IV and 10 mg/kg PO, cassette in 100% DMSO): No adverse effects were observed
Individual plasma concentration ([1]; rat, IV 1 mg/kg, 0.083 h, animals 1-3, 1 mg/kg): 568 ng/mL and 345 ng/mL and 693 ng/mL
Individual plasma concentration ([1]; rat, IV 1 mg/kg, 0.25 h, animals 1-3, 1 mg/kg): 62.1 ng/mL and 94.6 ng/mL and 171 ng/mL
Individual plasma concentration ([1]; rat, IV 1 mg/kg, 0.50 h, animals 1-3, 1 mg/kg): 31.9 ng/mL and 63.2 ng/mL
Individual plasma concentration ([1]; rat, IV 1 mg/kg, 1.0 h, animals 1-3, 1 mg/kg): 19.1 ng/mL and 25.4 ng/mL
Individual plasma concentration ([1]; rat, IV 1 mg/kg, 2.0 h, animals 1-3, 1 mg/kg): 8.99 ng/mL and 12.6 ng/mL
Individual plasma concentration ([1]; rat, IV 1 mg/kg, 4.0 h, animals 1-3, 1 mg/kg): 4.34 ng/mL and 6.41 ng/mL
Individual plasma concentration ([1]; rat, IV 1 mg/kg, 8.0 h, animals 1-3, 1 mg/kg): 1.12 ng/mL and 1.58 ng/mL
Individual plasma concentration ([1]; rat, PO 10 mg/kg, 0.25 h, animals 4-6, 10 mg/kg): 21.8 ng/mL and 15.9 ng/mL and 33.5 ng/mL
Individual plasma concentration ([1]; rat, PO 10 mg/kg, 0.50 h, animals 4-6, 10 mg/kg): 14.8 ng/mL and 24.0 ng/mL
Individual plasma concentration ([1]; rat, PO 10 mg/kg, 1.0 h, animals 4-6, 10 mg/kg): 28.3 ng/mL and 13.6 ng/mL and 22.0 ng/mL
Individual plasma concentration ([1]; rat, PO 10 mg/kg, 2.0 h, animals 4-6, 10 mg/kg): 11.4 ng/mL and 18.2 ng/mL
Individual plasma concentration ([1]; rat, PO 10 mg/kg, 4.0 h, animals 4-6, 10 mg/kg): 27.9 ng/mL and 11.7 ng/mL and 13.6 ng/mL
Individual plasma concentration ([1]; rat, PO 10 mg/kg, 8.0 h, animals 4-6, 10 mg/kg): 47.1 ng/mL and 8.04 ng/mL and 5.96 ng/mL
fraction unbound at 100 μM [2]: 0.01
recovery at 100 μM [2]: 90%
half-life at 1 μM [3]: > 2 h
IC50 [4]: < 100 nM
